In patent US20070027184A1, “Multicyclic sulfonamide compounds as inhibitors of histone deacetylase for the treatment of disease” (KALYPSYS, INC., priority 2005, published 2007):
Like-named read-outs stand apart in the source and are kept apart here.

What was measured:
HDAC = experiment: In vitro HDAC-inhibition assay (Fluor de Lys); type: biochemical
Experimental: This assay measures a compound's ability to inhibit acetyl-lysine deacetylation in vitro and was used as both a primary screening method as well as for IC50 determinations of confirmed inhibitors. The assay is performed in vitro using an HDAC enzyme source (e.g. partially purified nuclear extract or immunopurified HDAC complexes) and a proprietary fluorescent substrate/developer system (HDAC Quantizyme Fluor de Lys Fluorescent Activity Assay, BIOMOL). The assay is run in 1,536-well Greiner white-bottom plates using the following volumes and order of addition:
Step 1: Enzyme (2.5 ul) source added to plate (from refrigerated container)
Step 2: Compounds (50 nl) added with pin transfer device
Step 3: Fluor de Lys (2.5 ul) substrate added, incubate at RT, 30 minutes
Step 4: Developer (5 ul) solution is added (containing TSA), to stop reaction
Step 5: Plate Reader—data collection
The deacetylated fluorophore is excited with 360 nm light and the emitted light (460 nm) is detected on an automated fluorometric plate reader (Aquest, Molecular Devices).

HDAC in cells = experiment: Cellular IC50 (cellular histone hyperacetylation / differential cytotoxicity assays); type: cell-based
Experimental: These two secondary assays evaluates a compound's ability to inhibit HDAC in cells by measuring cellular histone acetylation levels. The cytoblot facilitates quantitative EC50 information for cellular HDAC inhibition. Transformed cell lines (e.g. HeLa, A549, MCF-7) are cultured under standard media and culture conditions prior to plating.
Cells (approx. 2,500/well) are allowed to adhere 10-24 hours to wells of a 384-well Greiner PS assay plate in media containing 1-5% serum. Cells are treated with appropriate compound and specific concentrations for 0 to 24 hours. Cells are washed once with PBS (60 ul) and then fixed (95% ethanol, 5% acetic acid or 2% PFA) for 1 minute at RT (30 ul). Cells are blocked with 1% BSA for 1 hour and washed and stained with antibody (e.g. anti-Acetylated Histone H3, Upstate Biotechnology), followed by washing and incubation with an appropriate secondary antibody conjugated to HRP or fluorophore. For luminescence assays, signal is generated using Luminol substrate (Santa Cruz Biotechnology) and detected using an Aquest plate reader (Molecular Devices).
HDAC inhibitors display differential cytotoxicity toward certain transformed cell lines. Cells are cultured according to standard ATCC recommended conditions that are appropriate to each cell type. Compounds were tested for their ability to kill different cell types (normal and transformed) using the ATPlite luminescence ATP detection assay system (Perkin Elmer). Assays are run in either 384-well or 1536-well Greiner PS plates. Cells (30 ul or 5 ul, respectively) are dispensed using either multichannel pipette for 384-well plates, or proprietary Kalypsys bulk liquid dispenser for 1536-well plates. Compounds added using proprietary pin-transfer device (500 nL or 5 nL) and incubated 5 to 30 hours prior to analysis. Luminescence is measured using Aquest plate reader (Molecular Devices).

[1] = test system: HCT-116 colorectal cancer cells; experiment: in vivo; conditions: for T/C value for efficacy at MTD: daily oral gavage
Experimental: (§1) 5×10^6 HCT-116 colorectal cancer cells were injected subcutaneously into the right flank of 4-6 week old female nude (nu/nu) mice. […] Tumor burden was determined twice weekly by measurement with calipers in 2-dimensions (length (l)×width (w)) and the volume of spheroid calculated using the formula (l×(w)^2/2). Bodyweight was measured and recorded on same day as tumor volume measurement.

in vivo = conditions: female, mouse, in vivo
Experimental: as §1

[2] = 50 mg/kg QD orally, data from another study

IC50 (HDAC) [nM]	SMILES	IC50 (HDAC in cells) [nM]	other results
≤ 1000	CC(=O)SCC(=O)c1ccc(NS(=O)(=O)c2ccc3c(c2)OCO3)nc1 [Example 6, Thioacetic acid S-{2-[6-(benzo[1,3]dioxole-5-sulfonylamino)-pyridin-3-yl]-2-oxo-ethyl}ester]	≤ 1000	–
–	CC(=O)SCC(=O)c1ccc(NS(=O)(=O)c2ccc3c(c2)OCCCO3)nc1 [Example 15, Thioacetic acid S-{2-[6-(3,4-dihydro-2H-benzo[b][1,4]dioxepine-7-sulfonylamino)-pyridin-3-yl]-2-oxo-ethyl}ester]	≤ 1000	–
–	CC(=O)SCC(=O)c1ccc(NS(=O)(=O)c2ccc3nc(NCCN(C)C)ccc3c2)nc1 [Example 21, Thioacetic acid S-(2-{6-[2-(2-dimethylamino-ethylamino)-quinoline-6-sulfonylamino]-pyridin-3-yl}-2-oxo-ethyl)ester]	≤ 1000	–
–	CC(=O)SCC(=O)c1ccc(NS(=O)(=O)c2ccc3nc(N4CCN(C)CC4)ccc3c2)nc1 [Example 19, Thioacetic acid S-(2-{6-[2-(4-methyl-piperazin-1-yl)-quinoline-6-sulfonylamino]-pyridin-3-yl}-2-oxo-ethyl)ester]	≤ 1000	–
≤ 1000	O=C(CSC(=O)c1ccccc1)c1ccc(NS(=O)(=O)c2ccc3c(c2)OCCO3)nc1 [Example 12, Thiobenzoic acid S-{2-[6-(2,3-dihydro-benzo[1,4]dioxine-6-sulfonylamino)-pyridin-3-yl]-2-oxo-ethyl}ester]	≤ 1000	–
–	CC(=O)SCC(=O)c1ccc(NS(=O)(=O)c2ccc3c(c2)CCO3)nc1 [Example 4, Thioacetic acid S-{2-[6-(2,3-dihydro-benzofuran-5-sulfonylamino)-pyridin-3-yl]-2-oxo-ethyl}ester]	≤ 1000	–
≤ 1000	CC(=O)SCC(=O)c1ccc(NS(=O)(=O)c2ccc3c(c2)OCCO3)cn1 [Example 3, Thioacetic acid S-{2-[5-(2,3-dihydro-benzo[1,4]dioxine-6-sulfonylamino)-pyridin-2-yl]-2-oxo-ethyl}ester]	≤ 1000	–
–	CC(=O)SCC(=O)c1ccc(NS(=O)(=O)c2ccc3nc(N(C)C)ccc3c2)nc1 [Example 24, Thioacetic acid S-{2-[6-(2-dimethylamino-quinoline-6-sulfonylamino)-pyridin-3-yl]-2-oxo-ethyl}ester]	≤ 1000	–
≤ 1000	O=C(CS)c1ccc(NS(=O)(=O)c2ccc3c(c2)OCCO3)nc1 [Example 11, 2,3-Dihydro-benzo[1,4]dioxine-6-sulfonic acid[5-(2-mercapto-acetyl)-pyridin-2-yl]-amide]	≤ 1000	–
> 1000	O=C(O)CCSCC(=O)c1ccc(NS(=O)(=O)c2ccc3c(c2)OCCO3)nc1 [Example 9, 3-{2-[6-(2,3-Dihydro-benzo[1,4]dioxine-6-sulfonylamino)-pyridin-3-yl]-2-oxo-ethylsulfanyl}propionic acid]	–	–
≤ 1000	O=C(CSSCC(=O)c1ccc(NS(=O)(=O)c2ccc3c(c2)OCCO3)nc1)c1ccc(NS(=O)(=O)c2ccc3c(c2)OCCO3)nc1 [Example 8, 2,3-Dihydro-benzo[1,4]dioxine-6-sulfonic acid [5-(2-mercapto-acetyl)-pyridin-2-yl]-amide disulfide]	≤ 1000	–
–	O=C(CCCCCCC(=O)Nc1ccccc1)NO [SAHA, reference compound]	–	T/C [1, 2]: 59%; T/C ([1]; 100 mg/kg QD orally): 65%; T/C ([1]; 125 mg/kg QD orally): 73%; T/C ([1]; 175 mg/kg QD orally): 41%; T/C ([1]; 250 mg/kg QD orally): 52%; T/C ([1]; 350 mg/kg QD orally): 24%; Lethality ([1]; 350 mg/kg daily oral gavage): lethality was observed; T/C ([1]; 475 mg/kg QD orally): 21%; T/C value for efficacy at MTD [1]: 52%; MTD (in vivo; nude (nu/nu), po): 250 mg/kg
≤ 1000	CC(=O)SCC(=O)c1ccc(NS(=O)(=O)c2ccc3c(c2)ncn3C)nc1 [Example 2]	≤ 1000	–
–	CC(=O)SCC(=O)c1ccc(NS(=O)(=O)c2ccc3nc(N(C)CCCN(C)C)ccc3c2)nc1 [Example 23, Thioacetic acid S-[2-(6-{2-[(3-dimethylamino-propyl)-methyl-amino]-quinoline-6-sulfonylamino}-pyridin-3-yl)-2-oxo-ethyl]ester]	≤ 1000	–
≤ 1000	CC(=O)SCC(=O)c1cnc(NS(=O)(=O)c2ccc3c(c2)OCCO3)nc1 [Example 7, Thioacetic acid S-{2-[2-(2,3-dihydro-benzo[1,4]dioxine-6-sulfonylamino)-pyrimidin-5-yl]-2-oxo-ethyl}ester]	> 1000	–
–	CC(=O)SCC(=O)c1ccc(NS(=O)(=O)c2ccc3c(c2)OCCN3C)nc1 [Example 14, Thioacetic acid S-{2-[6-(4-methyl-3,4-dihydro-2H-benzo[1,4]oxazine-7-sulfonylamino)-pyridin-3-yl]-2-oxo-ethyl}ester]	≤ 1000	–
≤ 1000	NC(CSSCC(=O)c1ccc(NS(=O)(=O)c2ccc3c(c2)OCCO3)nc1)C(=O)O (stereo not shown) [Example 13, 2-Amino-3-{2-[6-(2,3-dihydro-benzo[1,4]dioxine-6-sulfonylamino)-pyridin-3-yl]-2-oxo-ethyldisulfanyl}-propionic acid]	≤ 1000	–
≤ 1000	CN(C)CCSSCC(=O)c1ccc(NS(=O)(=O)c2ccc3c(c2)OCCO3)nc1 [Example 10, 2,3-Dihydro-benzo[1,4]dioxine-6-sulfonic acid {5-[2-(2-dimethylamino-ethyldisulfanyl)-acetyl]-pyridin-2-yl}-amide]	≤ 1000	–
–	CC(=O)SCC(=O)c1cnc(NS(=O)(=O)c2ccc3c(c2)OCCO3)s1 [Example 18, Thioacetic acid S-{2-[2-(2,3-dihydro-benzo[1,4]dioxine-6-sulfonylamino)-thiazol-5-yl]-2-oxo-ethyl}ester]	≤ 1000	–
≤ 1000	CC(=O)SCC(=O)c1ccc(NS(=O)(=O)c2ccc3ncccc3c2)cc1 [Example 5, Thioacetic acid S-{2-oxo-2-[4-(quinoline-6-sulfonylamino)-phenyl]-ethyl}ester]	≤ 1000	–
–	CC(=O)SCC(=O)c1csc(NS(=O)(=O)c2ccc3c(c2)OCCO3)n1 [Example 17, Thioacetic acid S-{2-[2-(2,3-dihydro-benzo[1,4]dioxine-6-sulfonylamino)-thiazol-4-yl]-2-oxo-ethyl}ester]	> 1000	–
–	CC(=O)SCC(=O)c1ccc(NS(=O)(=O)c2ccc3nc(N4CCCN(C)CC4)ccc3c2)nc1 [Example 20, Thioacetic acid S-(2-{6-[2-(4-methyl-[1,4]diazepan-1-yl)-quinoline-6-sulfonylamino]-pyridin-3-yl}-2-oxo-ethyl)ester]	≤ 1000	–
–	CC(=O)SCC(=O)c1ccc(NS(=O)(=O)c2ccc3nc(NCCCN(C)C)ccc3c2)nc1 [Example 22, Thioacetic acid S-(2-{6-[2-(3-dimethylamino-propylamino)-quinoline-6-sulfonylamino]-pyridin-3-yl}-2-oxo-ethyl)ester]	≤ 1000	–
–	CC(=O)SCC(=O)c1ccc(NS(=O)(=O)c2ccc3c(c2)OCC(C)(C)CO3)nc1 [Example 16, Thioacetic acid S-{2-[6-(3,3-dimethyl-3,4-dihydro-2H-benzo[b][1,4]dioxepine-7-sulfonylamino)-pyridin-3-yl]-2-oxo-ethyl}ester]	≤ 1000	–

SMILES	IC50 (HDAC) [nM]	IC50 (HDAC in cells) [nM]	other results
CC(=O)SCC(=O)c1ccc(NS(=O)(=O)c2ccc3c(c2)OCCO3)nc1 [Example 1]	≤ 1000	≤ 1000	Survival [1, 2]: 10/10; T/C [1, 2]: 53%; Tolerability (weight loss, mortality) ([1]; 50 mg/kg, determined previously): well tolerated; Survival ([1]; 100 mg/kg QD orally): 8/10; T/C ([1]; 100 mg/kg QD orally): 42%; Survival ([1]; 125 mg/kg QD orally): 7/10; T/C ([1]; 125 mg/kg QD orally): 29%; Survival ([1]; 175 mg/kg QD orally): 0/10; T/C ([1]; 175 mg/kg QD orally): 11%; Survival ([1]; 250 mg/kg QD orally): 2/10; T/C ([1]; 250 mg/kg QD orally): 15%; T/C value for efficacy at MTD [1]: 53%; MTD (in vivo; daily oral gavage, highest dose without lethality or ≧20% bodyweight loss, read-out: Maximum tolerated dose (MTD)): < 100 mg/kg
